Results on 3 compounds are retold here after patent publication EP3981864A1, “DETERGENT COMPOSITION” (priority 2020, dated 2022).

Molecules are shown by their SMILES.

What all share (experiment): Alpha-dioxygenase activity assay (oxygen consumption, TON)
Holding throughout (assay type): biochemical
Holding throughout (settings): fatty acid 100 µM, enzyme 6 ppm, 50 mM HEPES pH 9.0, 37°C; initial rate of oxygen consumption / enzyme concentration

Assay [1] relates to Mycolicibacterium fortuitum αDOX (SEQ ID NO: 14), fatty acid alpha-dioxygenase, K0VM18, N-terminal His-tag variant SEQ ID NO: 275 (comparative). The source says: (§1) Mycolicibacterium fortuitum αDOX (SEQ ID NO: 14) is a fatty acid alpha-dioxygenase that converts fatty acids into the corresponding 2-hydroperoxy fatty acids and is included as a comparative example of the present invention. A codon optimized gene (SEQ ID NO: 274) encoding for an alpha-dioxygenase variant (SEQ ID NO: 275), including an N-terminal amino acid sequence containing a His-tag was designed and synthesized by Genscript. After gene synthesis, the protein was expressed and purified. In brief, the complete synthetic gene sequence was subcloned into a pET30a vector using the NdeI/HindIII cloning sites. For heterologous expression, Escherichia coli BL21 (DE3) cells were transformed with the recombinant plasmid and a single colony was inoculated into LB medium containing kanamycin (50 mg/L). A pre-starter culture was then inoculated into flasks containing Magic Media (Thermo Fisher, Catalog # K6803) supplemented with kanamycin (50 mg/L) and incubated at 16 °C for 72 h. At an OD600nm = 0.5 - 1.0, 5-aminolevulinic acid (final concentration 0.5 mM) was added. Cells were harvested by centrifugation at 5000 rpm and 4°C and the pellet was lysed using a bacterial cell lysis buffer (B-PER - Themo Fisher, Waltham, MA). After centrifugation, the supernatant was collected, and the protein was purified by one-step purification using HisPur™ Ni-NTA Spin Columns (Thermo Scientific, Catalog # 88226) and standard protocols known in the art. […]
(§2) Reactions with alpha-dioxygenases were performed as follows. […] The reaction was incubated for up to 10 minutes at 37°C with 200 rpm agitation and the conversion was monitored using an oxygen sensor. The TON (in s-1) were calculated as the ratio between the initial rate of oxygen consumption (in µM/s) and the concentration of enzyme (in µM). […]

Assay [2] relates to Phaeosphaeria nodorum αDOX (SEQ ID NO: 2), fatty acid alpha-dioxygenase, Q0URU2, N-terminal His-tag variant SEQ ID NO: 251.
From the text: as §1, with “Phaeosphaeria nodorum” for “Mycolicibacterium fortuitum”, “2)” for “14)”, “an” for “a comparative”, “250)” for “274)”, “251),” for “275),”, “art. The protein was concentrated using a 10 kDa MW cutoff Amicon Ultra centrifugal filter unit (Millipore Sigma, Catalog# UFC901024), followed by desalting using a disposable PD-10 desalting column (GE Healthcare Life Sciences, Catalog# 17085101) and a buffer containing 50 mM Tris-HCl, 500 mM NaCl, and 10% Glycerol at pH 8.0.” for “art.”
as §2

Assay [3] relates to Medicago truncatula αDOX (SEQ ID NO: 9), fatty acid alpha-dioxygenase, A4PRI0, N-terminal His-tag variant SEQ ID NO: 265 (comparative).
From the text: as §1, with “Medicago truncatula” for “Mycolicibacterium fortuitum”, “9)” for “14)”, “264)” for “274)”, “265),” for “275),”, “art. The protein was concentrated using a 10 kDa MW cutoff Amicon Ultra centrifugal filter unit (Millipore Sigma, Catalog# UFC901024), followed by desalting using a disposable PD-10 desalting column (GE Healthcare Life Sciences, Catalog# 17085101) and a buffer containing 50 mM Tris-HCl, 500 mM NaCl, and 10% Glycerol at pH 8.0.” for “art.”
as §2

Consider `CCCCCCCCCCCCCCCCCC(=O)O` [Stearic Acid], for which the “Stearic Acid, TON” value turned out to be 0.03 s⁻¹ in assay [1], 8.80 s⁻¹ in assay [2] and 0.02 s⁻¹ in assay [3].

As for `CCCCCCCC/C=C\CCCCCCCC(=O)O` [Oleic Acid], the “Oleic Acid, TON” value in assay [1] came out at 0.00 s⁻¹; in assay [2] it was 0.99 s⁻¹; in assay [3], 0.06 s⁻¹.

`CCCCCCCCCCCCCCCC(=O)O` [Palmitic Acid]: the figures for the “Palmitic Acid, TON” value in assay [1], in assay [2] and in assay [3] were 0.21 s⁻¹, 20.63 s⁻¹ and 0.57 s⁻¹, respectively.
